Assay results as given in patent US11319313B2, “Crystalline forms of deuterium-enriched pioglitazone” (Poxel SA, priority 2020, dated 2022).
Where a name gives a salt, the structure may show the parent alone. Read-outs that look alike come from different tables or passages of the source. Marks after values point to notes of the source that are not given here.

Legend:
[1] = Dog pharmacokinetic (PK) study, single oral administration; type: in vivo, Beagle dogs; settings: dog, in vivo; for AUC0-24, Total Pio / AUC0-24, Total R-pio / AUC0-24, Total S-pio / Cmax, Total Pio / Cmax, Total R-pio / Cmax, Total S-pio / T1/2z, Total Pio / T1/2z, Total R-pio / T1/2z, Total S-pio / Tmax, Total Pio / Tmax, Total R-pio / Tmax, Total S-pio: po
Protocol: The 3 Beagle male dogs were fasted before dosing. Then all test drugs were administered by the oral route using API in a capsule. [table] Food was given no sooner than one hour after dose administration on the days of treatment. Each administration was separated by a wash-out period of at least 2 days. […] Predose (just before dosing) and then […] after dosing.

in vivo = settings: beagle, dog, plasma, po, 10 mg/kg/day
[2] = 13-week dog toxicology study, toxicokinetics on day 91; settings: Day 91, 10 mg/kg/day
[3] = pH-dependent solubility of crystalline salts (48 h equilibration, HPLC); type: physicochemical; settings: for Solubility: room temperature, 48 hours; for solubility at 48 h: 22 °C, thermodynamic from solid
Protocol: The pH-dependent solubility profiles of the crystalline DCl salt form of deuterium-enriched (R)-pioglitazone, and crystalline pioglitazone HCl were determined at room temperature (about 21° C. to about 23° C.) in the pH range of 0.3-7.6. For the crystalline HCl salt form of deuterium-enriched (R)-pioglitazone, the pH-dependent solubility profile was measured at room temperature (about 21° C. to about 23° C.) in the pH range of 0.3-3.5.
For the crystalline DCl salt form of deuterium-enriched pioglitazone, the pH-dependent solubility profile was measured at room temperature (about 21° C. to about 23° C.) in the pH range of 0.7-3.5.
Suspensions of the three crystalline forms were prepared in water or USP buffer solutions. The pH of the suspensions was adjusted through the addition of 0.1 M HCl or 0.1 M NaOH. For the preparation of suspensions with a pH of 0.5 or lower, the pH was adjusted using 1 M HCL.
The suspensions were then allowed to equilibrate at room temperature (about 21° C. to about 23° C.) for 48 hours. After equilibration the solid phases were separated from the liquid phases by centrifugation, subsequently dried and then analyzed by XRPD. The concentration of deuterium-enriched (R)-pioglitazone or pioglitazone in the liquid phases (mother liquors) was determined by HPLC (see HPLC method described in Example 5).

[4] = Solubility of crystalline DCl salt in various solvents (suspension, HPLC); type: physicochemical; settings: 24 hours at room temperature
Source text: Aliquots of the mother liquor were then taken from each suspension and analyzed by HPLC to determine the concentration of deuterium-enriched (R)-pioglitazone in the different solvents. [table]

[5] = Solubility of crystalline HCl salt in various solvents (visual dissolution); type: physicochemical; settings: 22 °C, thermodynamic from solid, ambient temperature, visual inspection
Protocol: […]; (ii) the resulting mixtures were then stirred at ambient temperature (about 21° C. to about 23° C.) for 5-10 minutes; (iii) the mixtures were then visually inspected to determine if the crystalline HCl salt had completely dissolved; (iv) if the crystalline HCl salt had not completely dissolved more solvent was added until complete dissolution occurred. Quantitative testing: (i) 100 mg of crystalline HCl salt was added to 4 vol. of each solvent (0.4 mL) dimethylformamide, methanol and DMSO; (ii) the resulting mixtures were then stirred at ambient temperature (about 20° C. to about 25° C.) for 5-10 minutes; (iii) the mixtures were then visually inspected to determine if the crystalline HCl salt had completely dissolved; (iv) if the crystalline HCl salt had not completely dissolved more solvent was added until complete dissolution occurred.
The solubilities were then calculated using the total quantity of crystalline HCl salt and solvent used for each solvent.

[6] = Water, filtered mother liquor pH 1.6
[7] = pH 1.6, simulated gastric fluid

For `[2H]C1(Cc2ccc(OCCc3ccc(CC)cn3)cc2)SC(=O)NC1=O` (racemic) [PXL061, deuterium-enriched pioglitazone], the “Frel vs PXL061 (relative oral bioavailability), Total Pioglitazone” value [1] was 1, the “AUC0-24, Total Pio” value ([1]; 10 mg/kg) was 4800 ng·h/mL and the “AUC0-24, Total R-pio” value ([1]; 10 mg/kg) was 2650 ng·h/mL. The “AUC0-24, Total S-pio” value ([1]; 10 mg/kg) was 2150 ng·h/mL, the “Cmax, Total Pio” value ([1]; 10 mg/kg) was 1310 ng/mL and the “Cmax, Total R-pio” value ([1]; 10 mg/kg) was 638 ng/mL. The “Cmax, Total S-pio” value ([1]; 10 mg/kg) was 683 ng/mL, the “T1/2z, Total Pio” value ([1]; 10 mg/kg) was 4.03 h and the “T1/2z, Total R-pio” value ([1]; 10 mg/kg) was 2.78 h. For the same compound, the “T1/2z, Total S-pio” value ([1]; 10 mg/kg) was 3.61 h, the “Tmax, Total Pio” value ([1]; 10 mg/kg) was 1 h and the “Tmax, Total R-pio” value ([1]; 10 mg/kg) was 1 h. The “Tmax, Total S-pio” value ([1]; 10 mg/kg) was 1 h.

In the case of `CCc1ccc(CCOc2ccc(CC3SC(=O)NC3=O)cc2)nc1` (racemic) [Pioglitazone], the AUC(0-t) (in vivo; female) is reported as 5620 ng·h/mL, the AUC(0-t) (in vivo; male) is reported as 2970 ng·h/mL and the “AUC0-24, ss dose normalized, total pioglitazone” value ([2]; female dogs (F)) is reported as 562 ng·h/mL. For the same compound, the “AUC0-24, ss dose normalized, total pioglitazone” value ([2]; male dogs (M)) was 297 ng·h/mL.

For `[2H]Cl.[2H]N1C(=O)SC([2H])(Cc2ccc(OCCc3ccc(CC)cn3)cc2)C1=O` (racemic) [deuterium-enriched pioglitazone], the Solubility ([3]; Water, filtered mother liquor pH 0.7) was 5240 µg/mL, the Solubility ([3]; Water, filtered mother liquor pH 0.9) was 2490 µg/mL and the Solubility ([3]; Water, filtered mother liquor pH 1.1) was 1630 µg/mL. The Solubility [3, 6] was 420 µg/mL, the Solubility ([3]; Water, filtered mother liquor pH 3.1) was <30 µg/mL and the Solubility ([3]; Water, filtered mother liquor pH 4.8) was <30 µg/mL. The “pH-dependent solubility behavior (in words)” value ([3]; pH range 0.7-3.5) was “behavior similar to that of pioglitazone HCl”.

With `[2H][C@@]1(Cc2ccc(OCCc3ccc(CC)cn3)cc2)SC(=O)NC1=O` [PXL064, deuterium-enriched (S)-pioglitazone] the “AUC0-24, Total Pio” value ([1]; 5 mg/kg) was 1410 ng·h/mL, the “AUC0-24, Total R-pio” value ([1]; 5 mg/kg) was 203 ng·h/mL and the “AUC0-24, Total S-pio” value ([1]; 5 mg/kg) was 1200 ng·h/mL. For the same compound, the “Cmax, Total Pio” value ([1]; 5 mg/kg) was 588 ng/mL, the “Cmax, Total R-pio” value ([1]; 5 mg/kg) was 54.0 ng/mL and the “Cmax, Total S-pio” value ([1]; 5 mg/kg) was 538 ng/mL. The “T1/2z, Total Pio” value ([1]; 5 mg/kg) was 1.73 h, the “T1/2z, Total R-pio” value ([1]; 5 mg/kg) was 1.91^a h and the “T1/2z, Total S-pio” value ([1]; 5 mg/kg) was 1.75 h. The “Tmax, Total Pio” value ([1]; 5 mg/kg) was 2 h, the “Tmax, Total R-pio” value ([1]; 5 mg/kg) was 2 h and the “Tmax, Total S-pio” value ([1]; 5 mg/kg) was 2 h.

With `CCc1ccc(CCOc2ccc(CC3SC(=O)NC3=O)cc2)nc1` (centres unmarked) [Pioglitazone HCl Salt, pioglitazone hydrochloride, reference compound] the “Solubility (in words)” value [3] was “practically insoluble”, the solubility at 48 h ([3]; pH 0.6, aqueous buffer) was 2880 µg/mL and the solubility at 48 h ([3]; pH 0.7, aqueous buffer) was 4000 µg/mL. It also gave a solubility at 48 h ([3]; pH 1.2, simulated gastric fluid) of 670 µg/mL, a solubility at 48 h [3, 7] of 440 µg/mL and a solubility at 48 h ([3]; pH 3, aqueous buffer) of 30 µg/mL. The solubility at 48 h ([3]; pH 4.5, aqueous buffer) was < 30 µg/mL, the solubility at 48 h ([3]; pH 4.6, aqueous buffer) was < 30 µg/mL and the solubility at 48 h ([3]; pH 5.6, aqueous buffer) was < 30 µg/mL. For the same compound, the solubility at 48 h ([3]; pH 6.6, aqueous buffer) was < 30 µg/mL and the solubility at 48 h ([3]; pH 7.6, aqueous buffer) was < 30 µg/mL.

In the case of `[2H]Cl.[2H]N1C(=O)S[C@]([2H])(Cc2ccc(OCCc3ccc(CC)cn3)cc2)C1=O` [deuterium-enriched (R)-pioglitazone], the Solubility ([3]; Acetate Buffer, filtered mother liquor pH 4.4) is reported as <50 µg/mL, the Solubility ([3]; Phosphate Buffer, filtered mother liquor pH 6.5) is reported as <50 µg/mL and the Solubility ([3]; Phosphate Buffer, filtered mother liquor pH 7.4) is reported as <50 µg/mL. The Solubility ([3]; Water, filtered mother liquor pH 0.4) was 1600 µg/mL, the Solubility ([3]; Water, filtered mother liquor pH 0.6) was 3010 µg/mL and the Solubility ([3]; Water, filtered mother liquor pH 0.8) was 3300 µg/mL. For the same compound, the Solubility ([3]; Water, filtered mother liquor pH 1.4) was 4540 µg/mL, the Solubility [3, 6] was 2580 µg/mL and the Solubility ([3]; Water, filtered mother liquor pH 2.4) was 390 µg/mL. For the same compound, the Solubility ([3]; Water, filtered mother liquor pH 3.7) was 50 µg/mL, the Solubility ([3]; Water, filtered mother liquor pH 6.8) was <50 µg/mL and the “Solubility (in words)” value ([3]; above pH 4) was “practically insoluble”. It also gave a Solubility ([4]; 2-propanol) of 500 µg/mL, a Solubility ([4]; 3-pentanone) of 500 µg/mL and a Solubility ([4]; Acetone) of 500 µg/mL. The Solubility ([4]; Chloroform) was 2000 µg/mL, the Solubility ([4]; DMSO) was 225900 µg/mL and the Solubility ([4]; Ethanol) was 4400 µg/mL. The Solubility ([4]; Ethyl acetate) was <100 µg/mL, the Solubility ([4]; Methanol) was 45000 µg/mL and the Solubility ([4]; N,N-dimethylformamide) was 46400 µg/mL. The Solubility ([4]; Tetrahydrofuran) was 1800 µg/mL, the Solubility ([4]; Water) was 7700 µg/mL and the Solubility ([4]; tert-butyl methyl ether) was <100 µg/mL.

With `[2H][C@]1(Cc2ccc(OCCc3ccc(CC)cn3)cc2)SC(=O)NC1=O` [deuterium-enriched (R)-pioglitazone] the solubility at 48 h ([3]; pH 0.5, aqueous buffer) was 2330 µg/mL, the solubility at 48 h ([3]; pH 0.6, aqueous buffer) was 2600 µg/mL and the solubility at 48 h ([3]; pH 0.7, aqueous buffer) was 3270 µg/mL. It also gave a solubility at 48 h ([3]; pH 0.8, aqueous buffer) of 3770 µg/mL, a solubility at 48 h ([3]; pH 1.4, simulated gastric fluid) of 5250 µg/mL and a solubility at 48 h [3, 7] of 3470 µg/mL. The solubility at 48 h ([3]; pH 3, aqueous buffer) was 200 µg/mL, the solubility at 48 h ([3]; pH 5.7, aqueous buffer) was < 50 µg/mL and the “Solubility (in words)” value ([3]; pH 4) was “practically insoluble”. The Solubility ([5]; organic solvent or mixture, DMSO) was > 50000 µg/mL, the Solubility ([5]; organic solvent or mixture, Dichloromethane) was 5000 to 10000 µg/mL and the Solubility ([5]; organic solvent or mixture, Ethanol) was 5000 to 10000 µg/mL. The Solubility ([5]; organic solvent or mixture, Ethyl acetate) was 5000 to 10000 µg/mL, the Solubility ([5]; organic solvent or mixture, Methanol) was ~50000 µg/mL and the Solubility ([5]; organic solvent or mixture, N,N-dimethylformamide) was ~50000 µg/mL. For the same compound, the Solubility ([5]; organic solvent or mixture, Tetrahydrofuran) was 5000 to 10000 µg/mL, the Solubility ([5]; organic solvent or mixture, Toluene) was 5000 to 10000 µg/mL and the Solubility ([5]; Water) was 5000 to 10000 µg/mL.
